# pEC50: −log10 of the molar value. Like-named read-outs stand apart in the source and are kept apart here.
# Tests used:
# HER2 (pY1248) in NCI-N87 = target: T1, HER2 (pY1248) in NCI-N87 (Homo sapiens, UniProt P04626); experiment: HER2 activation in NCI-N87 gastric cancer cells, western blot; type: cell-based
# T1 construct: host or cells: NCI-N87
# Method: (A-C) HER2-positive […] (SKBR3, A; NCI-N87, B; BT474, C) treated or not with Ebselen
# indicated, were analyzed by western blot to evaluate HER2 activation status using antibodies directed
# Proliferation was assessed by Incucyte during 4 days.
# [1] = system: HBMECs transfected with pRK5 empty vector; experiment: Proliferation of HBMECs transfected with pRK5 empty vector (Incucyte); conditions: 5 μM, Incucyte 5 days
# Method: 25.10^3 cells/96‐well transfected HBMECs or 9.10^3 cancer cells were seeded and monitored with an Incucyte S3 imaging system (Sartorius, Goettingen, Germany) using 10× objective every 2 h during 5 days. Confluency analyses were performed using the dedicated Incucyte analysis system.
# Proliferation was assessed by Incucyte during 5 days.
# Representative quantification of the proliferation (B) is shown where data are mean ± sem (n=8-12).
# vehicle, 5-10 µM Ebselen oxide or 5 µM AG1478.
# BT474 = experiment: Soft agar anchorage-independent growth, BT474; type: cell-based, human; conditions: 10 μM
# Method: (§1) A bottom layer of 0.8% agarose in DMEM supplemented with 20% FBS and penicillin/streptomycin was added to 24‐well plates before seeding 25.10^3 cells per well in a 0.6% agarose top layer. Cells were treated with a vehicle or with 10 μM ebselen oxide or derivatives. Treatments were renewed 3 times a week. After 6 weeks, colonies were visualized with a phase‐contrast microscope and their number and size were quantified using IMAGEJ software.
# (§2) Fig. 2 Ebselen oxide inhibits HER2 activation, cell proliferation, and anchorage‐independent growth of HER2^+ breast cancer cells. […] Blot and quantification of a representative experiment are shown out of 4 (A), 5 (B), or 2 (C) independent experiments. (D–F) Proliferation curves of HER2‐positive (SKBR3, D or BT474, E) or HER2‐negative (MDA‐MB‐231, F) breast cancer cell lines treated with vehicle or 10 μM ebselen oxide assessed by MTT assay. […] (G–I) Anchorage‐independent growth of SKBR3 (G), BT474 (H), or MDA‐MB‐231 (I) cells treated with vehicle or 10 μM ebselen oxide. […] Scale bars are […].
# HER2 (pY1248) in SKBR3 = target: T2, HER2 (pY1248) in SKBR3 (Homo sapiens, UniProt P04626); experiment: HER2 activation (pY1248-HER2) in SKBR3 cells, western/dot blot; type: cell-based; parameters: Inhibition of HER2 activation / HER2 inhibition, %: concentration or dose not given beside the values
# T2 construct: host or cells: SKBR3
# HER2 (pY1248) in SKOV3 = target: T3, HER2 (pY1248) in SKOV3 (Homo sapiens, UniProt P04626); experiment: HER2 activation in SKOV3 ovarian cancer cells, western blot; type: cell-based; conditions: ebselen oxide 0–10 μM 24 h, AG1478 5 μM
# T3 construct: host or cells: SKOV3
# Method: Human bone marrow endothelial cells (HBMECs) kindly provided by Dr. B. Weksler (Weill Medical College of Cornell University, NY) were cultured as described previously. The human breast cancer cell lines [SKBR3 (RRID:CVCL_0033), BT474 (RRID:CVCL_0179), and MDA‐MB‐231 (RRID:CVCL_0062)], the human gastric [NCI‐87 (RRID:CVCL_1603)] and ovarian [SKOV3 (RRID:CVCL_0532)] cancer cell lines were obtained from the American Type Culture Collection (Manassas, VA) and were maintained in DMEM containing 10% FBS. All cell lines were cultured under 5% CO2 at 37 °C. HBMECs were transfected using Amaxa Inc nucleofector system (Kit V and U015 program). […]
# Fig. 3 Ebselen oxide inhibits HER2 activation and HER2‐dependent proliferation in gastric and ovarian HER2^+ cancer cells. (A) HER2‐positive NCI‐87 gastric cancer cells were treated with ebselen oxide (0–20 μM) for 24 h, lysed, and analyzed by western blot using anti‐pY1248‐HER2, HER2, and β‐tubulin antibodies. […] (B) HER2‐positive SKOV3 ovarian cancer cells were treated with ebselen oxide (0–10 μM) for 24 h, lysed, and analyzed by western blot using anti‐pY1248‐HER2, HER2, and ezrin antibodies. […] (C, D) Proliferation curves of NCI‐N87 gastric (C) or SKOV3 ovarian (D) cancer cells treated with vehicle or 7–10 μM ebselen oxide measured by MTT assay. […]
# NCI-N87 = experiment: Proliferation of NCI-N87 cells; type: cell-based, human; conditions: ebselen oxide 7–10 μM, AG1478 5 μM
# Method: Fig. 3 Ebselen oxide inhibits HER2 activation and HER2‐dependent proliferation in gastric and ovarian HER2^+ cancer cells. (A) HER2‐positive NCI‐87 gastric cancer cells were treated with ebselen oxide (0–20 μM) for 24 h, lysed, and analyzed by western blot using anti‐pY1248‐HER2, HER2, and β‐tubulin antibodies. A representative western blot is shown out of 4 independent experiments. (B) HER2‐positive SKOV3 ovarian cancer cells were treated with ebselen oxide (0–10 μM) for 24 h, lysed, and analyzed by western blot using anti‐pY1248‐HER2, HER2, and ezrin antibodies. A western blot is shown (n = 1). (C, D) Proliferation curves of NCI‐N87 gastric (C) or SKOV3 ovarian (D) cancer cells treated with vehicle or 7–10 μM ebselen oxide measured by MTT assay. Data are mean ± SEM (n = 9–12) of three independent experiments.
# Supplementary figure 4: NCI-N87 and SKOV3 cancer cell lines are addicted to the HER2 pathway
# (A) NCI-N87 cells were treated (+) or not (-) with a non-specific HER2 inhibitor AG1478 (5 µM). Whole cell lysates were analyzed by western blot with pY1248 HER2, HER2 and pERK antibodies.
# (B) SKOV3 cells were treated (+) or not (-) with a non-specific HER2 inhibitor AG1478 (5 µM). Whole cell lysates were analyzed by western blot with pY1248 HER2, HER2, pERK or beta-tubulin antibodies.
# (C) Proliferation curves of NCI-N87 treated or not with AG1478 (5 µM). Data are mean ± sem (n=4-6). 2- […]
# MDA-MB-231 = experiment: Soft agar anchorage-independent growth, MDA-MB-231; type: cell-based, human; conditions: 10 μM
# Method: as §1, §2
# gD-HER2-EBM* = experiment: Western blot of HBMECs overexpressing ERM-binding-motif mutant gD-HER2-EBM*; conditions: 5 μM, 24 h, HBMEC
# Method: Cells were washed with cold PBS and lysed in a buffer containing 1% Triton, 50 mM Tris–HCl pH 8.8, 25 mM NaCl, 1 mM EDTA, 1 mM Na3VO4, 1 mM AEBSF, 10 μg·mL^−1 each of aprotinin/leupeptin/pepstatin or lysed in Laemmli buffer. Proteins were separated by SDS/PAGE and transferred to nitrocellulose (Schleicher & Schuell, Keene, NH, USA). Membranes were blocked for 1 h in TBS/0.1% Tween20/3% BSA and probed overnight with indicated antibodies. Peroxidase‐coupled secondary antibodies were used to reveal antibody binding using the ECL substrate (Pierce, Thermo Fisher Scientific, Waltham, MA, USA) and Fusion FX (Vilber Lourmat, Collégien, France) chemoluminescence acquisition system. Quantifications were done with IMAGEJ software (1.53e) (NIH, USA).
# (G, H) Lysates from HBMECs transfected with vectors encoding gD‐tagged wild‐type HER2 (gD‐HER2‐WT) (G) or the mutant generated with alanine and glycine substitutions within the ERM‐binding motif (gD‐HER2‐EBM*) (H) and treated or not during 24 h with 5 μM ebselen oxide were analyzed by western blot using antibodies against activated HER2 (pY1248), HER2, activated ERK (pERK), and ERK. Representative blots and quantification of data are shown where data are mean ± sem [n = 3 (G); n = 2 (H)].
# T2 sequence (P04626 23-1255): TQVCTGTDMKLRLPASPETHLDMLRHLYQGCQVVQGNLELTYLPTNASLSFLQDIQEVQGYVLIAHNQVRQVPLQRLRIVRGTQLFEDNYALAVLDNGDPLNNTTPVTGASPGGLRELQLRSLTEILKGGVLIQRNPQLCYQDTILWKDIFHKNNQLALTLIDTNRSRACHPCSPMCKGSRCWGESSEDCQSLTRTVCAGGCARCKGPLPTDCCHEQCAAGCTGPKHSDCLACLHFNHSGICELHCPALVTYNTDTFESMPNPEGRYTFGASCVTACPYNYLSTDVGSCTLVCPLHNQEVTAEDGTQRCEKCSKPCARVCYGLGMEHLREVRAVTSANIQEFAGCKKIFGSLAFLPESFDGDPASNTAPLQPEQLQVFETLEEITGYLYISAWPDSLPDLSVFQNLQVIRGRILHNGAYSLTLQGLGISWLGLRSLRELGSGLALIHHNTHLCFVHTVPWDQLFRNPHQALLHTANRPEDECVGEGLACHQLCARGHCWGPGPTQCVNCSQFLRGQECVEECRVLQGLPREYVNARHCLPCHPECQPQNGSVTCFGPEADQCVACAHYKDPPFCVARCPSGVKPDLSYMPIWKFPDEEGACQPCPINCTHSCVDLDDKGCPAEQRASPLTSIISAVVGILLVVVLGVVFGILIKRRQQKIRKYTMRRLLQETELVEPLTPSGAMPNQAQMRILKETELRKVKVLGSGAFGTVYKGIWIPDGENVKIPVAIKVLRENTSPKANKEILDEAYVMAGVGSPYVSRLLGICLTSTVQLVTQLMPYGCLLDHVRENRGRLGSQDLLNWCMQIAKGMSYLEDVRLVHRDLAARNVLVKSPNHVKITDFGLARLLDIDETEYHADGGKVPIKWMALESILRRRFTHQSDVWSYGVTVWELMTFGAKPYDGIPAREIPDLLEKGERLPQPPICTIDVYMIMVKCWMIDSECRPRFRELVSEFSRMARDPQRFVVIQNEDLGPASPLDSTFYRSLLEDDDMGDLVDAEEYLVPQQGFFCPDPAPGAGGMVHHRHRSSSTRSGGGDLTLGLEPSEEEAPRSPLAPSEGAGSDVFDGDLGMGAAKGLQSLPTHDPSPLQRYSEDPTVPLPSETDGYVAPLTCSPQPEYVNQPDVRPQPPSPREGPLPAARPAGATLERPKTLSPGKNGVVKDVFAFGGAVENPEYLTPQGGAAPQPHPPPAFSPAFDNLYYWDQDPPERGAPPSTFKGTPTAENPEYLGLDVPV
# T1 sequence (P04626 23-1255): as above
# T3 sequence (P04626 23-1255): as above
structure (smiles),measurement,setting,value
"O=C1c2ccccc2[Se](=O)N1c1ccccc1 (stereo not drawn) [Ebselen oxide, ebselen oxide]",Effect on HER2 activation,"HER2 (pY1248) in NCI-N87; ebselen oxide 0–20 μM 24 h, AG1478 5 μM",strongly blocked
same,"Effect on HER2 activation, single agents and combination","HER2 (pY1248) in NCI-N87; ebselen oxide 10 μM, lapatinib 10 nM",partially decreased
same,Effect on proliferation of cells transfected with pRK5 empty vector,[1],did not affect
same,Reduction in the size of micro-colonies,BT474,> 50%
same,Inhibition of HER2 activation,"HER2 (pY1248) in SKBR3; SKBR3, 24 h",66%
same,pEC50,"HER2 (pY1248) in SKBR3; SKBR3, 24 h, read-out: EC50 (inhibition of HER2)",4.62
same,Inhibition of HER2 activation,"HER2 (pY1248) in SKBR3; SKBR3, 48 h",64%
same,"Effect on HER2 activation, single agents and combination","HER2 (pY1248) in SKBR3; SKBR3, ebselen oxide 10 μM, lapatinib 10 nM",partially decreased
same,"HER2 inhibition, %","HER2 (pY1248) in SKBR3; Table 1, HER2+ breast cancer cells (ebselen oxide value equals SKBR3 48 h)",64.2%
same,EC50,"HER2 (pY1248) in SKBR3; Table 1, HER2+ breast cancer cells (ebselen oxide value equals SKBR3 48 h), read-out: EC50, μM (HER2 inhibition)",26.9 µM
same,Effect on HER2 activation,HER2 (pY1248) in SKOV3,strongly blocked
same,Effect on proliferation,NCI-N87,reduced proliferation
same,Effect on development of micro-colonies,MDA-MB-231,no impact
same,Downstream activation of ERK induced by gD-HER2-EBM* overexpression,gD-HER2-EBM*,did not reduce
same,Phosphorylation of gD-HER2-EBM*,gD-HER2-EBM*,did not reduce

# From PMC10552892, “Ebselen oxide and derivatives are new allosteric HER2 inhibitors for HER2‐positive cancers” (Molecular Oncology, 2023)
